For data set [1], the system named is MKN-45 gastric cancer cells. The data set can be described thus: Gastric cancer cell MKN45 xenograft model. It counts as in vivo, nude mice. The settings on record: oral 100 mg·kg^−1 once a day for 14 days. An excerpt:
• 1. Compounds (td32-4, td32-4P3, td32-4P6, td32-4P9, td32-4P10) were selected for in vivo activity evaluation at a single concentration. The animal model was gastric cancer cell MKN45 xenograft model.
(§1) Test method: 5×10^6 MKN-45 gastric cancer cells were inoculated under the fat pad of the right rib of nude mice, and the tumor formation was observed. Two weeks after the inoculation, the tumor-bearing mice were divided into groups and orally administered with td32-4, td32-4P3, td32-4P6, td32-4P9, and td32-4P10 at a dose of 100 mg·kg^−1, once a day for 14 days, respectively. Tumor volumes were measured with a caliper and recorded.

Another data set has as its system H358. The data set can be described thus: H358 nude mouse xenograft model. It counts as in vivo. The note with it: 50 mg/kg * 21 d, i.g, QD. The procedure:
as §1
(§2) The compound td32-4P10 was selected for in vivo activity evaluation. The tumor inhibitory activity data of td32-4P10 were tested in MV-4-11, H358 and H82 nude mouse xenograft model, respectively. Meanwhile, the changes in tumor volume during the treatment, and the changes in body weight of the nude mice induced by the drug during the treatment were measured. After the treatment, the tumor weights were counted. The tumor anatomical images after the treatment were recorded.

Data set [2] in a line: Solubility test (water), Chinese Pharmacopoeia 2015. It counts as physicochemical. The note with it: 25° C.±2° C., dissolution within 30 minutes. How it is done: The series of compounds synthesized in Examples 1-24 were subjected to solubility test (water), according to the solubility test methods in Chinese Pharmacopoeia, 2015 Edition. The specific test operations and evaluation criteria are as follows: An appropriate amount (1 mg-10 mg) of finely powdered compound was weighed, placed in a certain volume of solvent at 25° C.±2° C., and shaken vigorously for 30 seconds every 5 minutes; the dissolution within 30 minutes was observed. It was considered completely dissolved if there were no visible particles or droplets of the solute. [table]

Another data set concerns H82. The data set can be described thus: H82 nude mouse xenograft model. It counts as in vivo. The note with it: 50 mg/kg * 14 d, i.g, QD. The procedure:
as §1, §2

The nature of data set [3]: In vivo transformation / pharmacokinetic study in SD rats. The note with it: for time to almost complete conversion into td32-4 in vivo: oral 200 mg·kg^−1. The source says: The compounds of the present invention have improved solubility by introducing a hydrophilic functional group into the structure of td32-4 through an ester bond. After oral administration, the compounds need to be converted into td32-4 in the physical and chemical environment in vivo to exert pharmacological effects. In this example, some representative compounds were selected for in vivo pharmacokinetic studies in SD rats, and compared with direct oral administration of td32-4. The experiment was performed at high (200 mg·kg^−1) and low (10 mg·kg^−1) doses. 5 mg of the test sample was placed into a glass bottle. 1 mL of DMA (dimethylacetamide) was added and vortexed to dissolve the solid completely. 1.5 mL of PEG400 was added, vortexed and mixed well. 2.5 mL of physiological saline for injection was added, vortexed, mixed well. The mixture was filtered with a filter membrane (PALL, Nylon, 0.45 μm) to obtain a colorless and clear solution. The test sample was administered to experimental animals (n=3) by tail vein injection at a dose of 5 mg·kg^−1 (1 mg·mL^−1). An appropriate amount of the test sample was placed into a glass bottle. PEG400 was added, vortexed and mixed well. The mixture was sonicated to obtain a clear solution. The test sample was administered to experimental animals (n=3) by gavage at a dose of 10 mg·kg^−1 and 200 mg·kg^−1, respectively. SD rats were weighed before administration, and the dose was calculated according to the body weight. They were administered by intravenous injection or by gavage. Blood was collected through the submandibular vein or other suitable ways, at intervals of 0, 0.083, 0.25, 0.5, 1, 2, 4, 8, 12, 24 hours. About 0.20 mL of each sample was collected, anticoagulated with EDTA-K2, and placed on ice after collection, and centrifuged within 1 hour to separate plasma (centrifugation conditions: 6800 g, 6 minutes, 2-8° C.). Plasma samples were stored in a −80° C. freezer prior to analysis. The blood drug concentration of each sample was analyzed using LC-MS/MS. […]

The subject of the next data set is MV-4-11. The data set can be described thus: MV-4-11 nude mouse xenograft model. It counts as in vivo. The note with it: MV-4-11 xenograft, 50 mg/kg * 21 d, i.g, QD. How it is done:
as §1, §2

For data set [4] the following is noted: cited from earlier work.
Data set [5] concerns multiple tumor cell models. The settings on record: cited from earlier work.
A further data set addresses c-Kit (Homo sapiens, UniProt P10721). The settings on record: cited from earlier work.
For data set [6] the following is noted: low dose (10 mg·kg^−1), solution; cited from earlier work.
The target of another data set is c-Met (Homo sapiens, UniProt P08581). The note with it: cited from earlier work.
The next data set relates to VEGFR. The settings on record: cited from earlier work.

A value given as a limit tells only on which side of the number the result lay.

c-Met, sequence (P08581 25-1390): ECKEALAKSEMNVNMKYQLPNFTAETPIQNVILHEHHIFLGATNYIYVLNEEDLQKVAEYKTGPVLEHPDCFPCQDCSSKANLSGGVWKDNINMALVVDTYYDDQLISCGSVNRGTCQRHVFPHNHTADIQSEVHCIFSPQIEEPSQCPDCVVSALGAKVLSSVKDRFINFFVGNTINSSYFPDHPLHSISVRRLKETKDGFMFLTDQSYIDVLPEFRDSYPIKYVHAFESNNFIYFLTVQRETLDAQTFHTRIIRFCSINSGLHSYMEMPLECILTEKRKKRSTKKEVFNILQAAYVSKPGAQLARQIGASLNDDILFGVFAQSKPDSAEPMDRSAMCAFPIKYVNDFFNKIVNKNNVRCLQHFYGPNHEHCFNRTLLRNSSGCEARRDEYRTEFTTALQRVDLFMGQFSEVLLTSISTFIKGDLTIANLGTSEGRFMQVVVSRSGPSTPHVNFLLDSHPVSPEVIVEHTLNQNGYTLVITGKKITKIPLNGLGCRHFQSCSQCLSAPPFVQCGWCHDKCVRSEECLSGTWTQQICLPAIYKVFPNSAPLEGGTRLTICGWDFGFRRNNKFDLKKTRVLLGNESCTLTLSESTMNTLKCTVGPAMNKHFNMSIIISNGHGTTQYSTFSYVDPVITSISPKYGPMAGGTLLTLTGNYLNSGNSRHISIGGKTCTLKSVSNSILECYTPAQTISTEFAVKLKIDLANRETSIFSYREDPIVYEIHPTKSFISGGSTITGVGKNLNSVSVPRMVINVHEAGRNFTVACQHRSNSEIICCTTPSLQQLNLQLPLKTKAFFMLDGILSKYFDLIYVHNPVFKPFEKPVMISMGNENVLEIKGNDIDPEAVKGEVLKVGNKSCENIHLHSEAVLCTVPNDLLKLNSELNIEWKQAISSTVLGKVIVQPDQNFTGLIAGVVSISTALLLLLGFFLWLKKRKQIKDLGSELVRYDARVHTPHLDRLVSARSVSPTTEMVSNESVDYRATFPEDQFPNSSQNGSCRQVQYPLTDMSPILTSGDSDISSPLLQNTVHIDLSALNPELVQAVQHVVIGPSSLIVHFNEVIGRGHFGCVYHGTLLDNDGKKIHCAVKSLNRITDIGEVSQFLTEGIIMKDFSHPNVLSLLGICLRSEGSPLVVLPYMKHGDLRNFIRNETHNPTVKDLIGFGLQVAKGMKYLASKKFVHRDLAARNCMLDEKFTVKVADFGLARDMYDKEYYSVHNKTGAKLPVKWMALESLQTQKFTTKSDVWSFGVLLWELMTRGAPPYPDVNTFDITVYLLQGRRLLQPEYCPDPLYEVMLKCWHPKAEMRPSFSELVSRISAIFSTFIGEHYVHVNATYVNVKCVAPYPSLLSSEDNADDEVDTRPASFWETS
c-Kit, sequence (P10721 26-976): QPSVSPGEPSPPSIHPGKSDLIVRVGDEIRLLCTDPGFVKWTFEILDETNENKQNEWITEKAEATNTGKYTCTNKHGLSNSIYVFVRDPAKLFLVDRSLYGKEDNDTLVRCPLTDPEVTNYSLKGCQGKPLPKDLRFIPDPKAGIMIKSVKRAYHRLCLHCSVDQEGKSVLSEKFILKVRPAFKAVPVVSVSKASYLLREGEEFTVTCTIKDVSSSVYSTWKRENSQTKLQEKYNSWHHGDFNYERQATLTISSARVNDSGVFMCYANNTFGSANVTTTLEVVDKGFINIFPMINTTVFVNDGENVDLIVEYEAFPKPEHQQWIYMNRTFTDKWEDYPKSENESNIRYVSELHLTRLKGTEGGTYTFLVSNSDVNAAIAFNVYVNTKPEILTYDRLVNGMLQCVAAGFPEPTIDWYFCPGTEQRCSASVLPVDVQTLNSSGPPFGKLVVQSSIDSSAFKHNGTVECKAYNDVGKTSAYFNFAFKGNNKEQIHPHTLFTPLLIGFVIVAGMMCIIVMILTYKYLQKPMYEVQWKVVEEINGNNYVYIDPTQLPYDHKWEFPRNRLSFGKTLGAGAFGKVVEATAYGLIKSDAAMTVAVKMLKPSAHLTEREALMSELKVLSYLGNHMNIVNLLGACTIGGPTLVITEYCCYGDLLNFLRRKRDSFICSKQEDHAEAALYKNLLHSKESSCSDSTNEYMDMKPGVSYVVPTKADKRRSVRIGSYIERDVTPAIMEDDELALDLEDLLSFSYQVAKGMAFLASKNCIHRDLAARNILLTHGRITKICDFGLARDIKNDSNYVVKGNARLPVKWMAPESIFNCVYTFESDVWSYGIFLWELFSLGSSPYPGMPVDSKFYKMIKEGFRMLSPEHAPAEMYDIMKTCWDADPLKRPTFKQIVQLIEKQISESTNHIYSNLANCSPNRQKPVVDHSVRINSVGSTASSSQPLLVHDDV

On to `CC(C)C(N)C(=O)OCCn1cc(-c2cc3nccc(Oc4ccc(NC(=O)C5(C(=O)Nc6ccc(F)cc6)CC5)cc4F)c3s2)cn1` (centres unmarked) [td32-4P10, 2-(4-(7-(2-fluoro-4-(1-((4-fluorophenyl)carbamoyl)cyclopropane-1-carboxamide)phenoxy)thieno[3,2-b]pyridin-2-yl)-1H-pyrazolyl-1-yl)ethyl valinate], for which the “tumor inhibitory effect (tumor volume)” value in [1] is given as “potent tumor inhibitory effect”. Besides, the “T/C (%)” value turned out to be 6.6% with H358, 11% in the data set on H82 and 3.4% in the data set with MV-4-11. Further, the “TGI (%)” value was found to be 112% with H358, 92% with H82 and 109% in the data set with MV-4-11. Also, in data set [2], the “Water solubility test Result” value is listed as “C (1 g of solute is soluble in 10~30 mL of sovent)”. Further, in data set [3], the “time to almost complete conversion into td32-4 in vivo” value was no more than 18 h.

As to `O=C(Nc1ccc(F)cc1)C1(C(=O)Nc2ccc(Oc3ccnc4cc(-c5cnn(CCO)c5)sc34)c(F)c2)CC1` [td32-4], the water solubility entry in data set [4] is given as “extremely poor water solubility”. The anti-proliferative activity entry in data set [5] is “potent anti-proliferative activity”. Further, the inhibitory activity result on c-Kit, on c-Met and in the data set with VEGFR was “potent inhibitory activity” throughout. Besides, the “tumor inhibitory effect (tumor volume)” value in data set [1] is listed as “did not show significant activity”. The “Water solubility test Result” value in [2] is “G (1 g of solute is insoluble in 10000 mL of solvent)”. In data set [6], the “oral bioavailability F” value is 71.6%.

Regarding `CN(C)CC(=O)OCCn1cc(-c2cc3nccc(Oc4ccc(NC(=O)C5(C(=O)Nc6ccc(F)cc6)CC5)cc4F)c3s2)cn1` [td32-4P3, 2-(4-(7-(2-fluoro-4-(1-((4-fluorophenyl)carbamoyl)cyclopropane-1-carboxamide)phenoxy)thieno[3,2-b]pyridin-2-yl)-1H-pyrazolyl-1-yl)ethyldimethyl glycinate], the “tumor inhibitory effect (tumor volume)” value in data set [1] is recorded as “potent tumor inhibitory effect”. Further, in data set [2], the “Water solubility test Result” value is listed as “C (1 g of solute is soluble in 10~30 mL of sovent)”. The “conversion into td32-4 in vivo” value in [3] (oral 10 mg·kg^−1) is listed as “rapidly converted”. Also, the “time to almost complete conversion into td32-4 in vivo” value in data set [3] is no more than 18 h.

With `NCC(=O)OCCn1cc(-c2cc3nccc(Oc4ccc(NC(=O)C5(C(=O)Nc6ccc(F)cc6)CC5)cc4F)c3s2)cn1` [td32-4P6, 2-(4-(7-(2-fluoro-4-(1-((4-fluorophenyl)carbamoyl)cyclopropane-1-carboxamide)phenoxy)thieno[3,2-b]pyridin-2-yl)-1H-pyrazolyl-1-yl)ethyl glycinate], the “tumor inhibitory effect (tumor volume)” value in data set [1] is listed as “moderate inhibitory activity”. Further, the “Water solubility test Result” value in [2] is given as “C (1 g of solute is soluble in 10~30 mL of sovent)”.
